# Experimental data taken from PubChem BioAssay (NCI).
#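 GI50 = concentration required for 50% inhibition of growth. TGI: concentration producing complete growth inhibition.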
# Tests used:
# Assay in all cases: inhibition of tumour cell growth, NCI panel, 384-well format
# UO-31 renal = tested on: UO-31 renal
# M14 melanoma = tested on: M14 melanoma
# SK-OV-3 ovarian = tested on: SK-OV-3 ovarian
# K-562 leukemia = tested on: K-562 leukemia
# EKVX NSCLC = tested on: EKVX NSCLC
# NCI/ADR-RES ovarian = tested on: NCI/ADR-RES ovarian
# OVCAR-3 ovarian = tested on: OVCAR-3 ovarian
# MDA-MB-468 breast = tested on: MDA-MB-468 breast
# NCI-H322M lung = tested on: NCI-H322M lung
# A549 NSCLC = tested on: A549 NSCLC
# OVCAR-4 ovarian = tested on: OVCAR-4 ovarian
# RXF 393 renal = tested on: RXF 393 renal
# SR leukemia = tested on: SR leukemia
# UACC-62 melanoma = tested on: UACC-62 melanoma
# HS 578T breast = tested on: HS 578T breast
# SF-295 CNS = tested on: SF-295 CNS
# KM12 colon = tested on: KM12 colon
# LOX IMVI melanoma = tested on: LOX IMVI melanoma
# HOP-92 NSCLC = tested on: HOP-92 NSCLC
# SNB-19 CNS = tested on: SNB-19 CNS
# SF-268 CNS = tested on: SF-268 CNS
# MOLT-4 leukemia = tested on: MOLT-4 leukemia
# ACHN renal = tested on: ACHN renal
# SNB-75 CNS = tested on: SNB-75 CNS
# HL-60(TB) leukemia = tested on: HL-60(TB) leukemia
# RPMI-8226 leukemia = tested on: RPMI-8226 leukemia
# COLO 205 colon = tested on: COLO 205 colon
# CCRF-CEM leukemia = tested on: CCRF-CEM leukemia
# SF-539 CNS = tested on: SF-539 CNS
# MCF7 breast = tested on: MCF7 breast
smiles,measurement,setting,value
COc1cc(-c2ncn(/C=C\C(=O)OC(C)C)n2)cc(C(F)(F)F)c1,TGI,UO-31 renal,1.58 µM
same,GI50,M14 melanoma,0.123 µM
same,TGI,M14 melanoma,0.382 µM
same,GI50,SK-OV-3 ovarian,2.34 µM
same,TGI,SK-OV-3 ovarian,14.3 µM
same,GI50,K-562 leukemia,0.0304 µM
same,TGI,K-562 leukemia,0.177 µM
same,GI50,EKVX NSCLC,0.429 µM
same,TGI,EKVX NSCLC,6.09 µM
same,GI50,NCI/ADR-RES ovarian,0.0549 µM
same,TGI,NCI/ADR-RES ovarian,1.27 µM
same,GI50,OVCAR-3 ovarian,0.0264 µM
same,TGI,OVCAR-3 ovarian,0.151 µM
same,GI50,MDA-MB-468 breast,0.15 µM
same,TGI,MDA-MB-468 breast,0.336 µM
same,GI50,NCI-H322M lung,0.295 µM
same,TGI,NCI-H322M lung,2.53 µM
same,GI50,A549 NSCLC,0.0874 µM
same,TGI,A549 NSCLC,1.36 µM
same,GI50,OVCAR-4 ovarian,0.244 µM
same,TGI,OVCAR-4 ovarian,2.04 µM
same,GI50,RXF 393 renal,0.0166 µM
same,TGI,RXF 393 renal,0.0687 µM
same,GI50,SR leukemia,0.011 µM
same,TGI,SR leukemia,0.0237 µM
same,GI50,UACC-62 melanoma,0.0424 µM
same,TGI,UACC-62 melanoma,0.179 µM
same,GI50,HS 578T breast,0.0681 µM
same,TGI,HS 578T breast,0.461 µM
same,GI50,SF-295 CNS,0.214 µM
same,TGI,SF-295 CNS,2.3 µM
same,GI50,KM12 colon,0.217 µM
same,TGI,KM12 colon,1.15 µM
same,GI50,LOX IMVI melanoma,0.198 µM
same,TGI,LOX IMVI melanoma,0.826 µM
same,GI50,HOP-92 NSCLC,0.0695 µM
same,TGI,HOP-92 NSCLC,1.55 µM
same,GI50,SNB-19 CNS,0.444 µM
same,TGI,SNB-19 CNS,3.15 µM
same,GI50,SF-268 CNS,0.0299 µM
same,TGI,SF-268 CNS,0.0888 µM
same,GI50,MOLT-4 leukemia,0.0126 µM
same,TGI,MOLT-4 leukemia,0.0259 µM
same,GI50,ACHN renal,0.0575 µM
same,TGI,ACHN renal,1.5 µM
same,GI50,SNB-75 CNS,0.0919 µM
same,TGI,SNB-75 CNS,0.311 µM
same,GI50,HL-60(TB) leukemia,0.0237 µM
same,TGI,HL-60(TB) leukemia,0.118 µM
same,GI50,RPMI-8226 leukemia,0.0136 µM
same,TGI,RPMI-8226 leukemia,0.0325 µM
same,GI50,COLO 205 colon,0.0482 µM
same,TGI,COLO 205 colon,1.26 µM
same,GI50,CCRF-CEM leukemia,0.0409 µM
same,TGI,CCRF-CEM leukemia,0.182 µM
same,GI50,SF-539 CNS,0.0205 µM
same,TGI,SF-539 CNS,0.0712 µM
same,GI50,MCF7 breast,0.0659 µM
same,TGI,MCF7 breast,0.982 µM
